# Results reported in PubChem BioAssay (NCI).
# “And” between values parts separate entries of the source, which are not always exact repeats. Equal entries are not always repeated.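 96-well plates; 48 h exposure; 5 concentrations. Endpoints by linear interpolation between flanking doses. Not reached: highest tested concentration assigned. Abbreviation: GI50, concentration required for 50% inhibition of growth. TGI: total growth inhibition.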
# Assays:
# Experiment in all cases: NCI-60 cell line screen, 48 h
# BT-549 breast = tested on: BT-549 breast
# HOP-62 NSCLC = tested on: HOP-62 NSCLC
# MDA-MB-435 = tested on: MDA-MB-435
# ACHN renal = tested on: ACHN renal
# NCI-H522 lung = tested on: NCI-H522 lung
# SR leukemia = tested on: SR leukemia
# HS 578T breast = tested on: HS 578T breast
# DMS 114 small cell lung = tested on: DMS 114 small cell lung
# KM20L2 colon = tested on: KM20L2 colon
# DLD-1 colon = tested on: DLD-1 colon
Structure (SMILES),GI50 (BT-549 breast) [µM],TGI (BT-549 breast) [µM],GI50 (HOP-62 NSCLC) [µM],TGI (HOP-62 NSCLC) [µM],GI50 (MDA-MB-435),TGI (MDA-MB-435) [µM],GI50 (ACHN renal) [µM],TGI (ACHN renal) [µM],GI50 (NCI-H522 lung) [µM],TGI (NCI-H522 lung) [µM],GI50 (SR leukemia) [µM],TGI (SR leukemia) [µM],GI50 (HS 578T breast) [µM],TGI (HS 578T breast) [µM],TGI (DMS 114 small cell lung) [µM],TGI (KM20L2 colon) [µM],TGI (DLD-1 colon) [µM],GI50 (DMS 114 small cell lung) [µM],GI50 (DLD-1 colon) [µM]
COC1=CC(c2ccc[nH]2)=N/C1=C\c1[nH]c(C)c(CC(=O)NCc2ccccc2)c1C,1.41,3.06,1.51,2.95,1.68 µM,3.23,1.75,3.28,–,–,–,–,–,–,–,–,–,–,–
O=C(N/N=C\c1ccc(N(CCCl)CCCl)cc1)c1cccnc1,19.7,> 100,31.5,> 100,33.4 µM,> 100,31.6,> 100,29,> 100,3.1,> 100,65.5,> 100,–,–,–,–,–
N/C(=C\c1ccc(/C=C(\NC(=O)c2ccccc2)c2nc3c([nH]2)C(=O)c2ccccc2C3=O)cc1)c1nc2c([nH]1)C(=O)c1ccccc1C2=O,–,–,–,–,–,–,–,52.6,–,29.8,–,–,–,–,22.9,36.2,33,–,–
COc1ccc2c(c1)C(=O)c1c-2n(CCCN=[N+]=[N-])c(=O)c2cc([N+](=O)[O-])ccc12,–,1.3,–,–,0.252 µM and 0.491 µM,> 100,0.0443,–,< 0.001,0.657,–,13.4,16.2,> 100,–,–,–,–,–
N#C[S-].[Ce+3].c1ccc(-c2ccccn2)nc1.c1ccc(-c2ccccn2)nc1.c1ccc(-c2ccccn2)nc1,–,–,–,–,–,–,–,–,–,–,25.7,> 100,–,–,78.8,–,> 100,23.9,5.26
CC1=C/C(=N\NS(=O)(=O)c2ccc([N+](=O)[O-])cc2)CC(C)(C)C1,–,–,–,> 100,–,> 100,–,> 100,–,> 100,–,> 100,–,–,–,–,–,–,–
COC(Cc1cc(C(O)(c2ccc(C(C)(C)C)cc2)c2cc(CC(OC)(c3cc(C(OC)(c4ccc(C(C)(C)C)cc4)c4ccc(C(C)(C)C)cc4)c(C)cc3C)c3cc(C(OC)(c4ccc(C(C)(C)C)cc4)c4ccc(C(C)(C)C)cc4)c(C)cc3C)c(C)cc2C)c(C)cc1C)(c1cc(C(OC)(c2ccc(C(C)(C)C)cc2)c2ccc(C(C)(C)C)cc2)c(C)cc1C)c1cc(C(OC)(c2ccc(C(C)(C)C)cc2)c2ccc(C(C)(C)C)cc2)c(C)cc1C,–,> 75,–,> 75,–,> 75,–,–,–,–,–,> 75,–,> 75,–,–,–,–,–
COc1nc2ccc(Cl)c(C(O)c3ccccc3)c2nc1OC (centres undefined),–,80.7,–,38.6,–,42.8,–,> 100,–,37.8,–,27.3,–,38.9,–,–,–,–,–
